Test results as given in publication PMC6650409, “Modeling the binding of diverse ligands within the Ah receptor ligand binding domain” (Scientific Reports, 2019).
Substitutions are numbered along the chain they refer to.

Experiments:
M342A mutant AhR = target: T1, M342A mutant AhR (Mus musculus, UniProt P30561, M342A); test: [3H]TCDD competitive ligand binding, M342A mutant AhR; details: for change of relative binding affinity versus wild-type AhR: M342A substitution, in words; for IC50: Table S6, AhR mutant M342A
T1 construct: made in house; host or cells: in vitro, Promega TNT Quick rabbit reticulocyte lysate
T1 sequence (P30561 10-848 M342A): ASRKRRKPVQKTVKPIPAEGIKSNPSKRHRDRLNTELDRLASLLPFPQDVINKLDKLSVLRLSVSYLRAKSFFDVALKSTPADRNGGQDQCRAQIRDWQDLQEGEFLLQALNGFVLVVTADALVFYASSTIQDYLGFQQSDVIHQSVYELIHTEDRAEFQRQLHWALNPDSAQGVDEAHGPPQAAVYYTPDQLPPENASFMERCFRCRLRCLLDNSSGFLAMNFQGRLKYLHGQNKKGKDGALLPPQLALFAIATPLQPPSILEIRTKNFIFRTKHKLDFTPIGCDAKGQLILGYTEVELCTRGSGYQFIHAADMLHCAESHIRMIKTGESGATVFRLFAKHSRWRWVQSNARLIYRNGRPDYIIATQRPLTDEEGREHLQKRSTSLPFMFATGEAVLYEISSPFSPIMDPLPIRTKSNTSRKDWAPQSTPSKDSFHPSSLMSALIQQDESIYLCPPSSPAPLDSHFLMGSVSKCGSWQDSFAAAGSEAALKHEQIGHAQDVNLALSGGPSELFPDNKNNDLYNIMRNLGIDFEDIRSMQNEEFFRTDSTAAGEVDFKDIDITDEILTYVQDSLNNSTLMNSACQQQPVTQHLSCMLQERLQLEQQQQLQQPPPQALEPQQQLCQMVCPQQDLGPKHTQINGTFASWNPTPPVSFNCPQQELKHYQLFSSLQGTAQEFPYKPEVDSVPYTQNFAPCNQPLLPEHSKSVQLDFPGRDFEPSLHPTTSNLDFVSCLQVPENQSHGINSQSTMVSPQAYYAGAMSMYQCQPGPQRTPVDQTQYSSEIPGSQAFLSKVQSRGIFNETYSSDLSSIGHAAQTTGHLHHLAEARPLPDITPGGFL
Method: (§1) The mouse AhR (mAhR) and ARNT (mARNT) expression plasmids, mβAhR/pcDNA3 and mβArnt/pcDNA3, have been previously described. Point mutations of mβAhR/pcDNA3 were carried out using the QuikChange Lightning Mutagenesis Kit (Agilent Technologies) and all constructs were verified by sequencing.
(§2) [^3H]TCDD specific binding to wild-type or mutant mAhRs synthesized in vitro using the Promega TNT Quick coupled transcription/translation rabbit reticulocyte lysate kit (Madison, WI) was carried out as previously described. [^3H]TCDD specific binding was determined by subtracting the amount of [^3H]TCDD bound to unprogrammed lysate (nonspecific binding) from the total amount of [^3H]TCDD binding to lysate containing in vitro expressed AhR. The amount of [^3H]TCDD specific binding remaining in the presence of the indicated competitor chemical was expressed as a percent of the total [^3H]TCDD specific binding. The relative binding affinity (IC50) of each chemical was determined from concentration-dependent competitive inhibition curves obtained using [^3H]TCDD and increasing concentrations of each test chemical and the mean IC50 value was determined using three-parameter non-linear regression.

S359A mutant AhR = target: T2, S359A mutant AhR (Mus musculus, UniProt P30561, S359A); test: [3H]TCDD competitive ligand binding, S359A mutant AhR; details: for IC50: Table S6, AhR mutant S359A
T2 construct: made in house; host or cells: in vitro, Promega TNT Quick rabbit reticulocyte lysate
T2 sequence (P30561 10-848 S359A): T1 sequence (P30561 10-848 M342A) with A333M, S350A
Method: as §1, §2

With Cc1ccc2cc3c(ccc4ccccc43)c3c2c1CC3 [3MC, 3-methylcholanthrene] the “change of relative binding affinity versus wild-type AhR” value (M342A mutant AhR) was “reduced” and the IC50 (M342A mutant AhR) was 248 nM.

For O=c1cc(-c2ccccc2)oc2ccc3ccccc3c12 [BNF], the “change of relative binding affinity versus wild-type AhR” value (M342A mutant AhR) was “not affected”, the IC50 (M342A mutant AhR) was 9.6 nM and the IC50 (S359A mutant AhR) was 47.1 nM.

For c1ccc2c(c1)ccc1cc3c(ccc4ccccc43)cc12 [DBA, dibenz(a,h)anthracene], the “change of relative binding affinity versus wild-type AhR” value (M342A mutant AhR) was “not affected” and the IC50 (M342A mutant AhR) was 6.72 nM.

In the case of O=Cc1c2[nH]c3ccccc3c2cc2[nH]c3ccccc3c12 [FICZ, 6-formylindolo[3,2-b]carbazole], the IC50 (M342A mutant AhR) is reported as 0.0207 nM, the “change of relative binding affinity versus wild-type AhR” value (S359A mutant AhR; S359A substitution, in words) is reported as “decreased binding” and the IC50 (S359A mutant AhR) is reported as 4.1 nM.

With Clc1ccc(-c2cc(Cl)c(Cl)c(Cl)c2)cc1Cl [PCB126, 3,3′4,4′5-pentachlorobiphenyl] the “change of relative binding affinity versus wild-type AhR” value (M342A mutant AhR) was “reduced” and the IC50 (M342A mutant AhR) was 9.33 nM.
